In patent US20070167509A1, “Use of phenserine and analogs to treat behavioral problems and improve trainability” (priority 2005, published 2007):

Key:
Format in all cases: in vivo
aged dogs = assay: CP-118,954 study of DNMP performance, counter-balanced within-subject design
middle-aged beagle dogs = assay: delayed-non-matching-to-sample task (DNMS), recognition memory; conditions: 0.5 mg/kg dose
Procedure: The present study assessed the effects of a 0.5 mg/kg dose of phenserine in middle-aged dogs tested on a recognition memory task.
Six middle-aged beagle dogs (4 female and 2 male) served as subjects. Dogs were divided equally into 2 groups matched for performance on their most recent 10 sessions on the delayed-non-matching-to-sample task (DNMS; (Callahan et al., 2000). One group was administered phenserine (0.5 mg/kg) via capsule in a meatball and the second group served as control. Animals were tested one-hour after drug administration and were tested on a total of 20 test sessions.
To examine the effects of phenserine on DNMS performance, mean performance over groups of five test sessions was analyzed (see e.g., FIG. 1).

senior beagle dogs [1] = assay: relearning of the delayed-non-matching-to-position task (DNMP); conditions: N=4
Procedure: Five male and two female senior beagle dogs (M+S.D.=14.60+1.46 years) served as subjects (Table 1). Dogs were divided into two groups matched on their most recent DNMP performance; the first group (N=4) was administered phenserine (0.5 mg/kg) via capsule in a meatball and the second group (N=3) was administered a placebo meatball. Dogs received a five-day wash-in period prior to study initiation and were administered their respective treatments 1-hour prior to DNMP testing. Dogs were trained initially on the DNMP using a 5-s delay until a 2-stage criterion was passed. The first stage required animals to achieve a score of 11/12 on one day, a score of 10/12 over two consecutive days, or a score of 29/36 over three consecutive days. Subsequently, the dogs were required to achieve a score of 26/36 over the following three days to pass the second stage.

senior beagle dogs [2] = assay: variable-delay DNMP under scopolamine / saline challenge; conditions: scopolamine 15 μg/kg SC, 20-s (p=0.038) and 80-s (p=0.082) delays
Procedure: Following relearning of the DNMP, dogs were tested on a variable-delay paradigm in which delays of 20 and 80 s were used. The delays occurred equally among the trials in a daily test session. We have previously shown that the 15-μg/kg dose selectively impairs DNMP performance (Araujo et al., 2004a). The dogs were first divided into two groups, one that was administered phenserine and the other received a placebo control. All subjects were given a 5-day stabilization period and then tested under scopolamine (15 μg/kg, SC) and saline (SC), administered 45 min prior to testing, over two test days separated by a treatment washout day. One day following the second treatment day, animals were removed from phenserine or placebo treatments and re-tested on the stabilization days and under scopolamine and saline treatment as indicated above.

`O=C1Cc2cc3c(CCC4CCN(Cc5ccccc5)CC4)noc3cc2N1` [CP-118,954] was tested, and the DNMP performance (aged dogs) was “no significant improvement”.

With `CN1CC[C@@]2(C)c3cc(OC(=O)Nc4ccccc4)ccc3N(C)[C@@H]12` [phenserine, (−)-phenylcarbamoyleseroline] the adverse effects (middle-aged beagle dogs) was “No obvious adverse effects”, the “mean errors to relearn the DNMP (M+SEM)” value (senior beagle dogs [1]; 0.5 mg/kg via capsule 1 hour prior to testing, 5-s delay, placebo 14.33+6.98) was 5.25+0.85 errors and the “fewer errors compared to the most previous relearning rates (M+SEM)” value (senior beagle dogs [1]; 0.5 mg/kg, placebo group showed more errors (6.33+9.53)) was 5.00+4.51 errors.

`CN1[C@@H]2C[C@@H](OC(=O)[C@H](CO)c3ccccc3)C[C@H]1[C@@H]1O[C@@H]12` [scopolamine] was tested, and the “DNMP performance of the placebo group after treatment with scopolamine” value (senior beagle dogs [2]) was “performance deficits”.
